Source: patent US20190352341A1, “MODIFIED PEPTIDES AND THEIR USE FOR TREATING SYSTEMIC LUPUS ERYTHEMATOSUS” (IMMUPHARMA FRANCE SA, priority 2018, published 2019)
Where “and” joins values, the source holds several entries; their conditions need not be identical. Equal entries are not always repeated. Numbered stars: 1 amine (or outer) side, 2 acyl side, 3 side chain; on linkers, the order of the positions; unused ones are H or OH. Square brackets hold non-standard residues; d marks the D form. Peptide text beside a SMILES is read from it. ξ: configuration not given here. X1 = CSCC[C@H](NC(=N)[C@H](Cc1c[nH]cn1)N[*:1])C(=O)[*:2]; pS = N[C@@H](COP(=O)(O)O)C(=O)O; Ile(3ξ) = CCC(C)[C@H](N)C(=O)O

Key:
Balb/c mice = assay: 15-day ovalbumin-induced airway hypereosinophilia model, BAL cells; format: in vivo, mouse; parameters: Eosinophils / Neutrophils / T cells / B cells: unit not given here; conditions: for B cells / Eosinophils / Macrophages / Neutrophils / T cells / Total cells: BAL
Method: The P140 phosphopeptide was solubilized in sterile water (Braun) and 10× concentrate sterile saline was added to adjust osmolarity to 300 mosm. Osmolarity was controlled with a micro osmometer (Loser, type 15) and validated (302 mosm).
The P140 phosphopeptide was used in vivo at the dose of 4 mg/kg by intranasal (i.n.) and intravenous (i.v.) routes. Control animals received equivalent volumes (1 ml/kg for i.n. and 2 ml/kg for i.v.) of saline (Table 6).
Nine-week-old male Balb/c mice were sensitized by intraperitoneal (i.p.) injections of a mixture containing 50 μg OVA (Sigma-Aldrich) and 2 mg alum (Sigma-Aldrich) in 0.1 ml saline. Mice were challenged by i.n. administration of 25 μl of OVA on day 5, then 25 μl of OVA and/or saline on day 12, 13 and 14. Mice were treated by i.v. injection (2 ml/kg) or i.n. administration (1 ml/kg) of P140 or solvent on day 9 (See FIG. 12).
[…] Performing Bronchoalveolar Lavage in the Mouse. Curr Protoc Mouse Biol 2:167-175). Mice were anaesthetized IP (Ketamine 150 mg/kg-Xylasine 10 mg/kg). Blood was collected from the heart, centrifuged at 10,000 g for 2 min and serum stored at −20° C. After semi-excision of the trachea, a plastic cannula was inserted, and airspace washed with 0.5 ml of 0.9% NaCl injected with a 1 ml syringe. This procedure was performed 10 times. The initial concentrated supernatant of the 2 first lavages (volume=2×0.5 ml administered, ˜0.5 ml recovered) was collected for cytokine measurements. The remaining BAL fluid was centrifuged (300 g for 5 min, 4° C.), and cell pellets pooled. The cell pellet was suspended in 500 μl of 0.9% NaCl and used for total cell counts evaluated on a Muse® Cell Analyser. Differential cell counts were assessed by flow cytometry (LSRII® cytometer, BD Bioscience). BAL cells were added with FCblock (0.5 μl, 553142, BD Bioscience) in a black microplate, incubated for 20 min at room temperature. Then, marker antibodies were added: CD11c-FITC (557400, BD bioscience), Gr-1-Pe-eFluor610 (61-5931-82, eBioscience), CD11b-APC-Cy7 (557657, BD bioscience), CD45-AlexaFluor700 (103128, BioLegend), CD3-BV605 (564009, BD bioscience), CD19-PE-Cy7 (552854, BD bioscience). Antibodies were incubated with BAL cells for 30 min at room temperature before DAPI (5 μl, BD bioscience) addition, and flow cytometry was performed immediately.
Data are presented as means±SEM. Differences between groups were tested for statistical significance using one-way ANOVA followed by Tukey's post-test. For statistical analysis, control groups 1, 2 and 3 were pooled.

MRL/lpr B cells = conditions: cited from earlier work
MRL/lpr mice = assay: MRL/lpr mouse model of Gougerot-Sjögren syndrome (salivary glands); format: in vivo
Method: In this study MRL/lpr female 11-12 week old mice were used with 10 mice per group for statistical analysis. Each mouse received a single injection by retro-orbital, 100 μg of peptide P140 of 100 μl in […] NaCl. After 5 days, the mouse blood was collected in heparinized tube and salivary glands (GSS) were removed and placed in Eppendorf tubes containing PBS pH 7.4.
The number of foci site (FS) is determined for each mouse. A focus is defined as an aggregate of 50 or more cells.
The level of inflammation SG is determined semiquantitatively by a scoring system (0-3 scale): Grade 0: no inflammatory cells; Grade 1: few perivascular inflammatory and periductal Infiltrates (<100 cells); Grade 2: moderate number of perivascular inflammatory and periductal Infiltrates (100-500 cells); Grade 3: extensive inflammation with inflammatory foci broad (>500 cells).
Cells of total salivary glands stained with fluorescently were labeled antibodies for 40 min at 4° C., Were Collected data by FACSCalibur.
The weight of salivary glands Was Measured after-excision. DNase I (1 mg/ml) and collagenase D (50 μg/ml) were used to digest the salivary glands. Total cell counts were evaluated after the digestion.
The MRL/lpr mice (10 mice per arm) were injected with peptide P140 (100 μl/mouse iv). Five days after injection the mice were sacrificed and SGs collected as indicated above. The tissue was cut by the cryostat sections of 5 μm. The sections were labeled with hematoxylin/eosin staining is the method most frequently used in tissue histology. The level of inflammation and the number of FS were determined (FIGS. 19 and 20). Representative pictures are from sample control group 4 and group Treated sample (Bar 500 μm).

[1] = OVA challenge, P140-IN 4 mg/kg day 9, individual mice NL415-2_6 to _20
[2] = OVA challenge, P140-IN, 4 mg/kg day 9, individual mice NL415-2_12 to _22
[3] = saline challenge, P140-IN 4 mg/kg day 9, individual mice NL415-2_2, _8
[4] = saline challenge, P140-IN, 4 mg/kg day 9, individual mice NL415-2_4, _15
[5] = i.v. 4 mg/kg, OVA-challenged mice
[6] = 5 days after one single iv injection, flow cytometry

In the case of `CCC(C)[C@H](NC(=O)[C@H](Cc1ccccc1)NC(=O)[C@H](C)NC(=O)[C@H](Cc1ccc(O)cc1)NC(=O)CNC(=O)[C@H](CCCNC(=N)N)NC(=O)[C@@H]1CCCN1C(=O)[C@H](CCCCN)NC(=O)CNC(=O)[C@H](COP(=O)(O)O)NC(=O)[C@H](CCCNC(=N)N)NC(=O)[C@H](CCCCN)NC(=O)[C@H](CO)NC(=O)[C@H](Cc1ccc(O)cc1)NC(=O)[C@@H](NC(=O)[C@H](CCSC)NC(=N)[C@H](Cc1c[nH]cn1)NC(=O)[C@@H](NC(=O)[C@@H](N)CCCNC(=N)N)C(C)CC)C(C)C)C(=O)N[C@@H](CCC(=O)O)C(=O)N[C@@H](Cc1ccc(O)cc1)C(=O)O` (stereo partly shown) [Compound P140] (H-R[Ile(3ξ)][X1]VYSKR[pS]GKPRGYAF[Ile(3ξ)]EY-OH), the B cells (Balb/c mice; [1]) is reported as 25 606 and 32 251 and 26 562 and 23 383 and 33 156 and 13 236, the Eosinophils (Balb/c mice; [1]) is reported as 490 306 and 497 948 and 737 671 and 839 841 and 792 249 and 615 171 and the Macrophages (Balb/c mice; [1]) is reported as 271 110 and 322 340 and 247 391 and 538 954 and 436 210 and 286 509. The Neutrophils (Balb/c mice; [1]) was 57 542 and 60 787 and 62 354 and 95 173 and 47 346 and 65 366, the T cells (Balb/c mice; [1]) was 44 036 and 61 800 and 73 159 and 118 360 and 101 951 and 61 293 and the Total cells (Balb/c mice; [1]) was 862 995 and 942 875 and 1 120 576 and 1 592 328 and 1 377 755 and 1 028 339. For the same molecule, the B cells (Balb/c mice; [2]) was 10 219 and 15 209 and 14 027 and 17 417 and 11 003 and 10 922, the Eosinophils (Balb/c mice; [2]) was 425 928 and 272 763 and 473 105 and 470 027 and 327 186 and 429 469 and the Macrophages (Balb/c mice; [2]) was 439 265 and 442 055 and 244 523 and 293 070 and 342 134 and 379 565. For the same molecule, the Neutrophils (Balb/c mice; [2]) was 42 783 and 21 442 and 59 616 and 76 867 and 40 275 and 31 756, the T cells (Balb/c mice; [2]) was 41 744 and 43 881 and 32 677 and 55 502 and 28 857 and 45 030 and the Total cells (Balb/c mice; [2]) was 949 720 and 780 142 and 809 921 and 895 467 and 738 452 and 885 821. The B cells (Balb/c mice; [3]) was 112 and 242, the Eosinophils (Balb/c mice; [3]) was 168 and 103 and the Macrophages (Balb/c mice; [3]) was 388 102 and 434 029. For the same molecule, the Neutrophils (Balb/c mice; [3]) was 56 and 61, the T cells (Balb/c mice; [3]) was 4 135 and 4 180 and the Total cells (Balb/c mice; [3]) was 392 461 and 438 573. The B cells (Balb/c mice; [4]) was 70 and 266, the Eosinophils (Balb/c mice; [4]) was 110 and 166 and the Macrophages (Balb/c mice; [4]) was 335 658 and 335 200. For the same molecule, the Neutrophils (Balb/c mice; [4]) was 259 and 133, the T cells (Balb/c mice; [4]) was 5311 and 4 790 and the Total cells (Balb/c mice; [4]) was 341 738 and 340 389. The “Number of cells recovered in BAL fluid as compared to vehicle (saline)” value (Balb/c mice; i.n. or i.v., control mice challenged with saline) was “little effect per se”, the “Inflammatory cell recruitment in BAL” value (Balb/c mice; i.n. route, OVA-challenged mice) was “little effect” and the “B cells recruitment in BAL, change vs OVA group” value (Balb/c mice; [5]) was −42%. The “Eosinophil recruitment in BAL, change vs OVA group” value (Balb/c mice; [5]) was −50%, the “T cells recruitment in BAL, change vs OVA group” value (Balb/c mice; [5]) was −66% and the “Neutrophils recruitment in BAL, change vs OVA group” value (Balb/c mice; i.v. 4 mg/kg, OVA-challenged mice, not significant) was −38%. For the same molecule, the “Autophagy markers SQSTM1 and MAP1LC3 in MRL/lpr B cells” value (MRL/lpr B cells; after P140 treatment (Page et al., 2011)) was “accumulation”, the “Expression of HSPA8 and LAMP-2A in MRL/lpr B cells” value (MRL/lpr B cells; after treating mice with P140 peptide (Page et al., 2011; Macri et al.)) was “down-regulated” and the “Lymphocytic infiltration in the SGs” value (MRL/lpr mice; 5 days after one single administration, hematoxylin/eosin) was “significantly reduced”. The “Weight of salivary glands (SGs)” value (MRL/lpr mice; 5 days after one single iv injection) was “no statistically significant effect”, the “CD4+ T cells in SGs” value (MRL/lpr mice; [6]) was “decreased” and the “Total number of B cells in SGs” value (MRL/lpr mice; [6]) was “no statistically significant effect”. For the same molecule, the “Total number of cells present in the SGs” value (MRL/lpr mice; [6]) was “no apparent effect”.
